According to the NIST ThermoML archive (doi:10.1021/je034102r):

Experiment: molar heat capacity at constant pressure
Settings: 101.33 kPa, Liquid, heat bridge-scanning calorimeter

CCCCn1cc[n+](C)c1.F[P-](F)(F)(F)(F)F [1-butyl-3-methylimidazolium hexafluorophosphate]
Settings | molar heat capacity at constant pressure [J/K/mol]
353.76 K | 441.34
353.89 K | 441.34
354.01 K | 441.62
354.29 K | 441.9
354.41 K | 441.9
354.54 K | 441.62
354.66 K | 441.9
354.79 K | 442.19
354.91 K | 441.9
355.04 K | 442.19
355.16 K | 442.47
355.29 K | 442.47
355.41 K | 442.47
355.54 K | 442.47
355.81 K | 442.76
355.94 K | 443.04
356.06 K | 442.76
356.19 K | 442.76
356.31 K | 443.04
356.44 K | 443.04
356.56 K | 443.32
356.69 K | 443.32
356.81 K | 443.61
357.1 K | 443.32
357.24 K | 443.61
357.36 K | 443.61
357.49 K | 443.61
357.61 K | 443.61
357.74 K | 443.89
357.86 K | 443.89
357.99 K | 444.18
358.12 K | 444.18
358.24 K | 444.18
358.37 K | 444.18
358.64 K | 444.46
358.76 K | 444.75
358.89 K | 444.46
359.02 K | 444.75
359.14 K | 444.75
359.27 K | 444.75
359.39 K | 445.03
359.52 K | 445.03
359.64 K | 445.31
359.93 K | 445.31
360.05 K | 445.31
360.18 K | 445.6
360.3 K | 445.6
360.43 K | 445.88
360.55 K | 445.88
360.68 K | 445.88
360.8 K | 446.17
360.93 K | 446.17
361.05 K | 446.17
361.18 K | 446.45
361.45 K | 446.45
361.58 K | 446.45
361.7 K | 446.45
361.83 K | 446.45
361.95 K | 446.73
362.08 K | 446.73
362.2 K | 447.02
362.33 K | 447.02
362.45 K | 447.02
362.73 K | 447.02
362.86 K | 447.02
362.98 K | 447.3
363.12 K | 447.3
363.25 K | 447.3
363.37 K | 447.3
363.5 K | 447.59
363.62 K | 447.59
363.75 K | 447.87
363.87 K | 447.59
364 K | 447.87
364.27 K | 447.87
364.4 K | 447.87
364.52 K | 447.87
364.65 K | 448.16
364.77 K | 448.16
364.9 K | 448.16
365.02 K | 448.16
365.15 K | 448.44
365.28 K | 448.16
365.56 K | 448.44
365.69 K | 448.44
365.81 K | 448.72
365.94 K | 448.72
366.06 K | 448.72
366.19 K | 448.72
366.32 K | 448.72
366.44 K | 449.01
366.57 K | 449.01
366.69 K | 449.01
366.82 K | 449.29
367.09 K | 449.29
367.22 K | 449.29
367.34 K | 449.58
367.47 K | 449.86
367.59 K | 449.86
367.72 K | 449.86
367.84 K | 449.86
367.97 K | 449.86
368.1 K | 450.43
368.38 K | 450.14
368.51 K | 450.43
368.63 K | 450.43
368.76 K | 450.43
368.88 K | 450.43
369.02 K | 450.43
369.15 K | 450.43
369.27 K | 450.43
369.4 K | 450.71
369.53 K | 450.71
369.65 K | 450.71
369.92 K | 452.13
370.05 K | 452.13
370.17 K | 451.85
370.3 K | 451.28
370.43 K | 451.57
370.55 K | 451.28
370.68 K | 451.28
370.8 K | 451.57
370.93 K | 451.57
371.21 K | 451.85
371.34 K | 452.13
371.47 K | 452.13
371.59 K | 451.85
371.72 K | 452.13
371.84 K | 451.85
371.97 K | 452.13
372.09 K | 452.13
372.22 K | 452.13
372.35 K | 452.13
372.47 K | 452.7
372.74 K | 452.99
372.87 K | 452.7
372.99 K | 452.7
373.12 K | 452.7
373.25 K | 452.99
373.37 K | 453.56
373.5 K | 453.84
373.62 K | 453.56
373.75 K | 452.7
374.03 K | 453.27
374.16 K | 453.27
374.29 K | 453.27
374.41 K | 453.27
374.54 K | 454.41
374.67 K | 455.26
374.79 K | 454.69
374.92 K | 454.69
375.06 K | 454.69
375.18 K | 454.41
375.31 K | 454.12
375.58 K | 453.84
375.71 K | 453.84
375.83 K | 453.56
375.96 K | 453.84
376.09 K | 454.69
376.21 K | 455.83
376.34 K | 455.83
376.46 K | 455.54
376.59 K | 454.98
376.87 K | 454.41
376.99 K | 454.41
377.12 K | 454.41
377.25 K | 454.98
377.37 K | 455.26
377.5 K | 454.98
377.63 K | 454.69
377.75 K | 454.69
377.88 K | 454.98
378 K | 455.26
378.13 K | 455.54
378.4 K | 455.54
378.53 K | 455.26
378.65 K | 455.54
378.78 K | 455.54
378.91 K | 455.54
379.03 K | 455.54
379.16 K | 455.83
379.29 K | 456.11
379.41 K | 457.53
379.7 K | 456.11
379.83 K | 456.11
379.95 K | 456.4
380.08 K | 456.68
380.21 K | 456.68
380.33 K | 456.68
380.46 K | 456.68
380.59 K | 456.68
